Test results published in patent publication US8653050B2, “Phenyl bicyclic methyl amine derivatives as sphingosine-1 phosphate receptors modulators” (Allergan, Inc., priority 2011, dated 2014).

Assays:
[1] = molecular target: T1, human S1P1 receptor (Homo sapiens, UniProt P21453); assay: GTP γ35S binding assay for S1P1 activity; type: biochemical; settings: membranes of cells stably expressing S1P1 receptor
T1 construct: expressed in transfected cells; membranes used
Protocol: Compounds were synthesized and tested for S1P1 activity using the GTP γ^35S binding assay. These compounds may be assessed for their ability to activate or block activation of the human S1P1 receptor in cells stably expressing the S1P1 receptor.
GTP γ^35S binding was measured in the medium containing (mM) HEPES 25, pH 7.4, MgCl2 10, NaCl 100, dithitothreitol 0.5, digitonin 0.003%, 0.2 nM GTP γ^35S, and 5 μg membrane protein in a volume of 150 μl. Test compounds were included in the concentration range from 0.08 to 5,000 nM unless indicated otherwise. Membranes were incubated with 100 μM 5′-adenylylimmidodiphosphate for 30 min, and subsequently with 10 μM GDP for 10 min on ice. Drug solutions and membrane were mixed, and then reactions were initiated by adding GTP γ^35S and continued for 30 min at 25° C. Reaction mixtures were filtered over Whatman GF/B filters under vacuum, and washed three times with 3 mL of ice-cold buffer (HEPES 25, pH7.4, MgCl2 10 and NaCl 100). Filters were dried and mixed with scintillant, and counted for ^35S activity using a β-counter. Agonist-induced GTP γ^35S binding was obtained by subtracting that in the absence of agonist. Binding data were analyzed using a non-linear regression method. In case of antagonist assay, the reaction mixture contained 10 nM […] in the presence of test antagonist at concentrations ranging from 0.08 to 5000 nM.

[2] = system: female C57BL6 mice; assay: Lymphopenia assay in mice (in vivo blood lymphocyte depletion); settings: subcutaneous, 10 mg/Kg or 2 mg/Kg, 24 hours after dosing, FIG. 1 / FIG. 2
Protocol: Test drugs are prepared in a solution containing 3% (w/v) 2-hydroxy propyl R-cyclodextrin (HPBCD) and 1% DMSO to a final concentration of 1 mg/ml, and subcutaneously injected to female C57BL6 mice (CHARLES RIVERS) weighing 20-25 g at the dose of 10 mg/Kg. Blood samples are obtained by puncturing the submandibular skin with a Goldenrod animal lancet at 5, 24, 48, 72, and 96 hrs post drug application. Blood is collected into microvettes (SARSTEDT) containing EDTA tripotassium salt. Lymphocytes in blood samples are counted using a HEMAVET Multispecies Hematology System, HEMAVET HV950FS (Drew Scientific Inc.). (Hale, J. et al Bioorg. & Med. Chem. Lett. 14 (2004) 3351).
A lymphopenia assay in mice, as previously described, was employed to measure the in vivo blood lymphocyte depletion after dosing Compounds 9, 10, 11 and 14, (FIG. 1) and Compounds 15, 17, 18 and 20, (FIG. 2). These S1P agonists (or modulators) are useful for S1P-related diseases, and exemplified by the lymphopenia in vivo response. In general, test compounds were prepared in a solution containing 3% (w/v) 2-hydroxy propyl β-cyclodextrin (HPBCD) and 1% DMSO to a final concentration of 1 mg/ml, and subcutaneously injected to female C57BL6 mice (CHARLES RIVERS) weighing 20-25 g at the dose of 10 mg/Kg or 2 mg/Kg. Blood samples were obtained by puncturing the submandibular skin with a Goldenrod animal lancet at 24, 48, 72 and 96 hrs post drug application. Blood was collected into microvettes (SARSTEDT) containing EDTA tripotassium salt. Lymphocytes in blood samples were counted using a HEMAVET Multispecies Hematology System, HEMAVET HV950FS (Drew Scientific Inc.).

T1 sequence (P21453 whole entry): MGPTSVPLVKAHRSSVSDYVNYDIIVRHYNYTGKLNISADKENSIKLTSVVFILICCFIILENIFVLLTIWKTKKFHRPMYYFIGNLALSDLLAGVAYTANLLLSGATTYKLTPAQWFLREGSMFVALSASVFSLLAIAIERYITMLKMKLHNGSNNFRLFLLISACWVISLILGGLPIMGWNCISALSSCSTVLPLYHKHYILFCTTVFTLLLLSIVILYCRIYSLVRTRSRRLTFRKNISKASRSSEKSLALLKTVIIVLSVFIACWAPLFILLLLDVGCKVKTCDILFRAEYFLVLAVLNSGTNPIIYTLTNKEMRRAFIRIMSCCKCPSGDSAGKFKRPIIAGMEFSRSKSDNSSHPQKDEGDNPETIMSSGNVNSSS

| Compound | EC50 [1] | lymphocyte count after 24 hours [2] |
| --- | --- | --- |
| CCCCC(CC)CCc1ccc(-c2ccc(CNCCOP(=O)(O)O)c3ncccc23)cc1F (centres unmarked) [Compound 23, 2-[({5-[4-(3-ethylheptyl)-3-fluorophenyl]quinolin-8-yl}methyl)amino]ethyl dihydrogen phosphate] | 2.63 nM | – |
| CCCCC(CC)CCc1ccc(-c2ccc(CNCCCP(=O)(O)O)c3ncccc23)cc1F (centres unmarked) [Compound 19, {3-[({5-[4-(3-ethylheptyl)-3-fluorophenyl]quinolin-8-yl}methyl)amino]propyl}phosphonic acid] | 2.5 nM | – |
| O=P(O)(O)CCCNCc1ccc(-c2ccc(CCC3CCCCC3)c(F)c2)c2cccnc12 [Compound 20, {3-[({5-[4-(2-cyclohexylethyl)-3-fluorophenyl]quinolin-8-yl}methyl)amino]propyl}phosphonic acid] | 1.68 nM | lowered lymphocyte count |
| Cc1ccc(CCCc2ccc(-c3ccc(CNCCCP(=O)(O)O)c4ncccc34)cc2F)cc1 [Compound 18, (3-{[(5-{3-fluoro-4-[3-(4-methylphenyl)propyl]phenyl}quinolin-8-yl)methyl]amino}propyl)phosphonic acid] | 1 nM | lowered lymphocyte count |
| CCCCCCc1ccc(-c2ccc(CNCCC(=O)O)c3ncccc23)cc1 [Compound 7, 3-({[5-(4-hexylphenyl)quinolin-8-yl]methyl}amino)propanoic acid] | 872 nM | – |
| CCCCC(CC)CCc1ccc(-c2ccc(CNCCCP(=O)(O)O)c3ncccc23)cc1 (centres unmarked) [Compound 11, {3-[({5-[4-(3-ethylheptyl)phenyl]quinolin-8-yl}methyl)amino]propyl}phosphonic acid] | 6.97 nM | lowered lymphocyte count |
| Cc1ccccc1CCCc1ccc(-c2ccc(CNCCCP(=O)(O)O)c3ncccc23)cc1F [Compound 16, (3-{[(5-{3-fluoro-4-[3-(2-methylphenyl)propyl]phenyl}quinolin-8-yl)methyl]amino}propyl)phosphonic acid] | 1 nM | – |
| O=P(O)(O)CCCNCc1ccc(-c2ccc(CCCc3ccccc3)c(F)c2)c2cccnc12 [Compound 2, {3-[({5-[3-fluoro-4-(3-phenylpropyl)phenyl]quinolin-8-yl}methyl)amino]propyl}phosphonic acid] | 5.95 nM | – |
| O=P(O)(O)CCCNCc1ccc(-c2ccc(CCC3CCCCC3)cc2)c2cccnc12 [Compound 14, {3-[({5-[4-(2-cyclohexylethyl)phenyl]quinolin-8-yl}methyl)amino]propyl}phosphonic acid] | 1.5 nM | lowered lymphocyte count |
| CCCCCCc1ccc(-c2ccc(CNCCCP(=O)(O)O)c3ncccc23)cc1F [Compound 13, [3-({[5-(3-fluoro-4-hexylphenyl)quinolin-8-yl]methyl}amino)propyl]phosphonic acid] | 1.3 nM | – |
| CCCCCCc1ccc(-c2ccc(CNCCOP(=O)(O)O)c3ncccc23)cc1 [Compound 5, 2-({[5-(4-hexylphenyl)quinolin-8-yl]methyl}amino)ethyl dihydrogen phosphate] | 31.1 nM | – |
| CCCCC(CC)CCc1ccc(-c2ccc(CNCCO)c3ncccc23)cc1F (centres unmarked) [Compound 22, 2-[({5-[4-(3-ethylheptyl)-3-fluorophenyl]quinolin-8-yl}methyl)amino]ethanol] | 137 nM | – |
| CCCCCCc1ccc(-c2ccc(CNCCO)c3ncccc23)cc1 [Compound 15, 2-({[5-(4-hexylphenyl)quinolin-8-yl]methyl}amino)ethanol] | 192 nM | lowered lymphocyte count |
| CCCCCCCc1ccc(-c2ccc(CNCCCP(=O)(O)O)c3ncccc23)c(F)c1 [Compound 9, [3-({[5-(2-fluoro-4-heptylphenyl)quinolin-8-yl]methyl}amino)propyl]phosphonic acid] | 13.6 nM | lowered lymphocyte count |

Now from value to compound, other results behind:

| EC50 [1] | Compound | lymphocyte count after 24 hours [2] |
| --- | --- | --- |
| 0.6 nM | CCCCCCc1ccc(-c2ccc(CNCCCP(=O)(O)O)c3ncccc23)cc1 [Compound 4, [3-({[5-(4-hexylphenyl)quinolin-8-yl]methyl}amino)propyl]phosphonic acid] | – |
| 54.2 nM | CCCCCCc1ccc(-c2ccc(CNCCCP(=O)(O)O)c3ccccc23)cc1 [Compound 3, [3-({[4-(4-hexylphenyl)-1-naphthyl]methyl}amino)propyl]phosphonic acid] | – |
| 8.3 nM | O=P(O)(O)CCCNCc1ccc(-c2ccc(CCCc3ccccc3)cc2)c2cccnc12 [Compound 6, {3-[({5-[4-(3-phenylpropyl)phenyl]quinolin-8-yl}methyl)amino]propyl}phosphonic acid] | – |
| 0.3 nM | Cc1cccc(CCCc2ccc(-c3ccc(CNCCCP(=O)(O)O)c4ncccc34)cc2F)c1 [Compound 17, (3-{[(5-{3-fluoro-4-[3-(3-methylphenyl)propyl]phenyl}quinolin-8-yl)methyl]amino}propyl)phosphonic acid] | lowered lymphocyte count |
| 3.8 nM | Cc1ccccc1CCCc1ccc(-c2ccc(CNCCCP(=O)(O)O)c3ncccc23)cc1 [Compound 8, (3-{[(5-{4-[3-(2-methylphenyl)propyl]phenyl}quinolin-8-yl)methyl]amino}propyl)phosphonic acid] | – |
| 223 nM | CCCCCCCc1ccc(-c2ccc(CNCCCP(=O)(O)O)c3ncccc23)cc1F [Compound 10, [3-({[5-(3-fluoro-4-heptylphenyl)quinolin-8-yl]methyl}amino)propyl]phosphonic acid] | lowered lymphocyte count |
| 11.2 nM | CCCCCCCCc1ccc(-c2ccc(CNCCCP(=O)(O)O)c3ncccc23)cc1 [Compound 12, [3-({[5-(4-octylphenyl)quinolin-8-yl]methyl}amino)propyl]phosphonic acid] | – |
